From paper PMC2156146 (The Journal of Cell Biology, 1999)

Target: T1, SRβ (30-kD β-subunit of the SRP receptor) in SR liposomes (Canis lupus, UniProt A0A8I3Q3L6)
T1 sequence (A0A8I3Q3L6 1-271): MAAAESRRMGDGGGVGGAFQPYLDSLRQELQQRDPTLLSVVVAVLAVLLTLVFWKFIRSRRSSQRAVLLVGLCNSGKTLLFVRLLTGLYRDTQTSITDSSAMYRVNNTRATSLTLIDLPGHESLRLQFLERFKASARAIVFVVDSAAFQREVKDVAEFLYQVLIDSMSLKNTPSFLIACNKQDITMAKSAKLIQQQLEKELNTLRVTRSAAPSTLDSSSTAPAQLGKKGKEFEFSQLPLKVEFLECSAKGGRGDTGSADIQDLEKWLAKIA
T1 sequence (P06625 1-638 partner): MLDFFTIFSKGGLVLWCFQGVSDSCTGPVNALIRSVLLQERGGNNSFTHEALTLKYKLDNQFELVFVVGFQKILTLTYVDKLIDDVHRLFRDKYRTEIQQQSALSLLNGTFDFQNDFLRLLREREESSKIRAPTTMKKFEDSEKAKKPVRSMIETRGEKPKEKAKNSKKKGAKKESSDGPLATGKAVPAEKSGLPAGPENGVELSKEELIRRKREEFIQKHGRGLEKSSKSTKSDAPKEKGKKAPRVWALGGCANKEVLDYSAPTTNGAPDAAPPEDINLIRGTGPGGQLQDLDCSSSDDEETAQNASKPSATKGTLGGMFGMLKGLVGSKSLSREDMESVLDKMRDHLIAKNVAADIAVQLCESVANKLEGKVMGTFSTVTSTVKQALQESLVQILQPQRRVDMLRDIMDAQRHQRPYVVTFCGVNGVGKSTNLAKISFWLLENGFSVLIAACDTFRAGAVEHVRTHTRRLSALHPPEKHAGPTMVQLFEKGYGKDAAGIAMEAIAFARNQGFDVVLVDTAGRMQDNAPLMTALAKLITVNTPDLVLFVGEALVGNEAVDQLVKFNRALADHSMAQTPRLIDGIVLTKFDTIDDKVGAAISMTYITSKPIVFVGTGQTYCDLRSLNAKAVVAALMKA
Experiment: UV cross-linking of alpha-[…]GTP, saturation, SDS-PAGE and PhosphorImaging
Assay type: binding

Nc1nc2c(ncn2[C@@H]2O[C@H](COP(=O)(O)OP(=O)(O)OP(=O)(O)O)[C@@H](O)[C@H]2O)c(=O)[nH]1 [GTP]
Kd: 20 nM
